Results: ChEMBL document CHEMBL1125364, “Thromboxane receptor antagonism combined with thromboxane synthase inhibition. 3. Pyridinylalkyl-substituted 8-[(arylsulfonyl)amino]octanoic acids” (J Med Chem, 1992)

Legend:
Homo sapiens [1] = species: Homo sapiens; assay: The compound was tested in vitro for its inhibitory activity against U 46619-induced aggregation of human platelet rich plasma (PRP).; type: functional
Homo sapiens [2] = species: Homo sapiens; assay: The compound was tested in vitro for its inhibitory activity against U 46619-induced aggregation of washed human platelets.; type: functional
Thromboxane-A synthase = biological target: T1, Thromboxane-A synthase (Homo sapiens, UniProt P24557); assay: The compound was tested in vitro for its inhibitory activity against thromboxane synthase A2 (TXA2)
T1 sequence (P24557 whole entry): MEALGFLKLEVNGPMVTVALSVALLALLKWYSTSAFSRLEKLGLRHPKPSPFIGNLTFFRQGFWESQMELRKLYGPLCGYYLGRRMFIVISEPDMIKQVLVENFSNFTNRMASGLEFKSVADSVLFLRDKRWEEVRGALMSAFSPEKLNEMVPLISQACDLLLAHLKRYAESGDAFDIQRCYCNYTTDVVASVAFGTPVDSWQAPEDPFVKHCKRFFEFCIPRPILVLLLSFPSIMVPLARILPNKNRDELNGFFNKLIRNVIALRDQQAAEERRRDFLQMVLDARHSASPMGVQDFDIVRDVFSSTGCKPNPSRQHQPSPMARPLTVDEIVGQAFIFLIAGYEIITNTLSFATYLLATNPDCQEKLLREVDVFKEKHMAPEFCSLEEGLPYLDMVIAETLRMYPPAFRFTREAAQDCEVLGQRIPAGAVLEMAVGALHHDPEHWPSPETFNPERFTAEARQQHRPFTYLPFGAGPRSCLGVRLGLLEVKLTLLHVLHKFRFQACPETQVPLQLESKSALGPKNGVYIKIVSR

Canis familiaris [3] = species: Canis familiaris; assay: The compound was tested in vitro for its antagonistic activity against U 46619-induced contraction of saphenous vein in dog; agonist activity was observed at e-6 - e-7; details: Canis lupus familiaris, filed as agonist
Canis familiaris [4] = species: Canis familiaris; assay: The compound was tested in vitro for its inhibitory activity against U 46619-induced contraction of saphenous vein in dog.; type: functional; details: Canis lupus familiaris, read-out: pA2 (converted)
Canis familiaris [5] = species: Canis familiaris; details: Canis lupus familiaris; Saphenous vein; filed as agonist

| SMILES | IC50 (Homo sapiens [1]) [nM] | IC50 (Homo sapiens [2]) [nM] | IC50 (Thromboxane-A synthase) [nM] | pA2 (Canis familiaris [3]) | Kb (Canis familiaris [4]) [nM] | pA2 (Canis familiaris [5]) |
| --- | --- | --- | --- | --- | --- | --- |
| O=C(O)CCCCCC(CNS(=O)(=O)c1ccc(Cl)cc1)c1cccnc1 (centres undefined) | 280 | 20 | 220 | Agonist | – | – |
| O=C(O)CC(CCCCCNS(=O)(=O)c1ccc(Cl)cc1)CCCCc1cccnc1 (centres undefined) | – | 1390 | 100 | – | – | – |
| O=C(O)CCCC(CCCNS(=O)(=O)c1ccc(Cl)cc1)CCc1cccnc1 (centres undefined) | 4600 | 220 | 20 | – | 1.74 | – |
| O=C(O)CCC(CCCCNS(=O)(=O)c1ccc(Cl)cc1)CCCc1cccnc1 (centres undefined) | 390 | 19 | 2 | – | 1.26 | – |
| O=C(O)C(CCCCCCNS(=O)(=O)c1ccc(Cl)cc1)CCCCCc1cccnc1 (centres undefined) | – | 300 | 4 | – | – | – |
| O=C(O)CCCCCCC(NS(=O)(=O)c1ccc(Cl)cc1)c1cccnc1 (centres undefined) | 600 | 27 | > 500 | – | – | Agonist |
| O=C(O)CCCCC(CCNS(=O)(=O)c1ccc(Cl)cc1)Cc1cccnc1 (centres undefined) | 370 | 117 | 14 | – | 11.7 | – |
